In the supplement of paper PMC10307832:

What was measured:
[1] = compound: CN1CCN(CC1)C2=CC(=C(C=C2)NC3=NC(=C(S3)C(=O)C4=C(C=CC=C4Cl)Cl)N)OC [XMD14-99] + CC(=O)Nc1cccc(-n2c(=O)n(C3CC3)c(=O)c3c(Nc4ccc(I)cc4F)n(C)c(=O)c(C)c32)c1 [Trametinib] (partner 0.02 µM); assay: relative viability (nuclei count vs DMSO), 5 days (fraction); higher = more cells survive
Outline: (§1)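 Lung cancer cell lines, seeded in 1536-well plates, were treated the following day by pin tool with a single drug or with five library-drug doses (not always all listed) in √10 steps on top of a fixed anchor-drug dose. Cells were fixed and nuclei stained in one step after 5 days, and nuclei were counted. Relative viability is the nuclei count for treated wells divided by that for vehicle wells, reported as medians of duplicate plates.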

[2] = compound: N[C@@H]1CCCN(c2c(/C=C3\SC(=O)NC3=O)cccc2-c2ccccc2)C1 [AZD1208] + Cc1nc(Nc2ncc(C(=O)Nc3c(C)cccc3Cl)s2)cc(N2CCN(CCO)CC2)n1 [Dasatinib] (partner 0.075 µM); assay: as above
Outline: as §1

Cell Line | relative viability ([1]; first compound 0.08 µM) | relative viability ([1]; first compound 0.8 µM) | relative viability ([1]; first compound 2.53 µM) | relative viability ([1]; first compound 8 µM) | relative viability ([2]; first compound 0.08 µM) | relative viability ([2]; first compound 0.253 µM) | relative viability ([2]; first compound 0.8 µM) | relative viability ([2]; first compound 2.53 µM) | relative viability ([2]; first compound 8 µM)
COR-L23 | 0.518 | 0.56 | 0.546 | 0.363 | 0.471 | 0.508 | 0.479 | 0.452 | 0.523
ABC-1 | – | – | – | – | 0.667 | 0.509 | 0.522 | 0.69 | 0.563
SW 900 | 0.779 | 0.876 | 0.752 | 0.756 | 0.456 | 0.693 | 0.427 | 0.547 | 0.367
PC-14 | 0.668 | 0.726 | 0.59 | 0.217 | 0.268 | 0.257 | 0.201 | 0.198 | 0.169
NCI-H1648 | 0.613 | 0.46 | 0.459 | 0.466 | – | – | – | – | –
A-427 | 0.762 | 0.668 | 0.651 | 0.553 | 0.553 | 0.644 | 0.531 | 0.659 | 0.431
NCI-H1792 | 0.419 | 0.465 | 0.399 | 0.302 | 0.722 | 0.595 | 0.647 | 0.675 | 0.55
LCLC-97TM1 | 0.172 | 0.229 | 0.208 | 0.18 | 0.88 | 0.827 | 0.82 | 0.631 | 0.891
LCLC-103H | 0.702 | 0.716 | 0.719 | 0.665 | 0.448 | 0.501 | 0.421 | 0.448 | 0.33
RERF-LC-KJ | 0.808 | 0.846 | 0.76 | 0.682 | 0.685 | 0.608 | 0.546 | 0.595 | 0.483
BEN | 0.971 | 1.15 | 1 | 0.879 | 0.334 | 0.243 | 0.285 | 0.299 | 0.314
NCI-H1666 | 0.883 | 0.699 | 0.739 | 0.864 | 0.843 | 0.829 | 0.828 | 0.763 | 0.834
LC-2-ad | 0.956 | 0.88 | 0.998 | 0.873 | 0.525 | 0.464 | 0.465 | 0.51 | 0.459
SW 1573 | 0.547 | 0.58 | 0.74 | 0.47 | 0.404 | 0.537 | 0.438 | 0.586 | 0.319
ChaGo-K-1 | 0.861 | 0.863 | 0.895 | 0.829 | 0.657 | 0.624 | 0.518 | 0.539 | 0.514
COR-L 105 | 0.407 | 0.493 | 0.432 | 0.431 | 0.34 | 0.34 | 0.308 | – | 0.356
NCI-H1975 | 0.263 | 0.416 | 0.32 | 0.308 | 0.388 | 0.363 | 0.36 | 0.361 | 0.381
NCI-H2009 | 0.258 | 0.317 | 0.254 | 0.185 | 0.257 | 0.267 | 0.279 | 0.249 | 0.304
SK-LU-1 | 0.538 | 0.502 | 0.473 | 0.309 | 0.162 | 0.14 | 0.154 | 0.168 | 0.133
